# Values of other authors in PMC12808597, “Spatially diffuse cAMP signalling with oppositely biased GLP-1 receptor agonists in β-cells despite differences in receptor localisation” (Molecular Metabolism, 2025).
# No end group written: not given here.
# Key:
# [1] = tested on: BRIN-BD11 clonal β-cells; conditions: ref [5]
# From the text: (§1) In this work we relied on agonist-specific patterns of internalisation to provide selective endosomal or plasma membrane localisation of active GLP-1R. Alternative approaches include pharmacological or genetic inhibition of receptor internalisation, for example the small molecule dynamin inhibitor dyngo4A [55] or overexpression of dominant negative dynamin K44 mutants, both of which have been used to probe the importance of GLP-1R internalisation on its signalling responses.
# [2] = tested on: HEK293 cells; conditions: ref [16]
# From the text: as §1
# [3] = tested on: rodent systems; conditions: no reference given
# [4] = tested on: GLP-1R; conditions: ref [6],[26]
# From the text: In this context, interest has emerged in GLP-1R agonist ligands (GLP-1RAs) showing distinct trafficking profiles, which could lead to altered signalling from intracellular locations [[14], [15], [16]], as has been extensively noted for other GPCRs [[17], [18], [19]].
# [5] = tested on: GLP-1R; conditions: ref [12]
# From the text: GPCR signalling localisation is now a major area of research interest. Inherent to this phenomenon is the assumption that signalling responses are subject to tight spatial control, for example in the form of sharp cAMP concentration gradients close to the site of generation. Indeed, this has been reported when comparing GLP-1-induced cAMP responses at different plasma membrane nanodomains in HEK293 cells with overexpressed GLP-1R [12]. This contrasts somewhat with the current work in which cAMP was rapidly detected at intracellular locations distant from the activated GLP-1R in β-cell ...
compound,measurement,setting,value
O=C(N/N=C/c1ccc(O)c(O)c1)c1cc2ccccc2cc1O [dynasore],Effect on exendin-4-induced cAMP production,[1],reduced exendin-4-induced cAMP production
O=C(N/N=C/c1cc(O)c(O)cc1O)c1cc2ccccc2cc1O [dyngo4a],Effect on GLP-1RA signalling responses,[2],broad inhibition of GLP-1RA signalling responses
Cc1cc(-n2nc3c(c2-n2ccn(-c4ccc5c(cnn5C)c4F)c2=O)[C@H](C)N(C(=O)c2cc4cc([C@H]5CCOC(C)(C)C5)ccc4n2[C@@]2(c4noc(=O)[nH]4)C[C@@H]2C)CC3)cc(C)c1F [orforglipron],Activity in rodent systems,[3],inactive
AMG133: GLP-1RA/GIPR antagonistic antibody,GLP-1R-mediated delivery to early endosomes,[4],enhanced GLP-1R-mediated delivery to early endosomes
"GLP-1: GLP-1, as used in Anton et al. [12] (HAEGTFTSDVSSYLEGQAAKEFIAWLVKGR; ends and bridges not checked; UniProt P01275 98-127, looked up)",cAMP at GLP-1R nanodomain,[5]; GLP-1 1 pM,cAMP increases within 60 nm of the GLP-1R in HEK293 cells without changes to whole cell or overall plasma membrane cAMP
same,cAMP gradient at GLP-1R nanodomain,[5]; GLP-1 1 nM and 100 nM,no such gradient was seen
